Assay results reported in patent US8217141B2, “Crystalline and amorphous forms of peptide” (Neopro Labs, LLC, priority 2007, dated 2012).
Where a SMILES comes first, the peptide text is derived from it.

Assays:
[1] = Approximate solubility, solvent addition method; assay type: physicochemical; settings: ambient temperature
Experimental: A weighed sample of SEQ ID NO:1 (a polypeptide of amino acids F-L-P—S) was treated with aliquots of the test solvent at ambient temperature. Complete dissolution of the test material was determined by visual inspection. Solubility was estimated based on the total solvent used to provide complete dissolution. The actual solubility may be greater than the value calculated because of the use of solvent aliquots that were too large or due to a slow rate of dissolution. […] If complete dissolution was achieved as a result of only one aliquot addition, the solubility is expressed as “greater than”.

[2] = Dynamic vapor sorption/desorption (DVS); assay type: physicochemical; settings: for weight gain, adsorption: 5%-95% RH; for weight loss, desorption: 95%-5% RH
Experimental: Moisture sorption/desorption data were collected on a VTI SGA-100 Vapor Sorption Analyzer. Sorption and desorption data were collected over a range of 5% to 95% relative humidity (RH) at 10% RH intervals under a nitrogen purge. Samples were not dried prior to analysis. Equilibrium criteria used for analysis were less than 0.0100% weight change in 5 minutes, with a maximum equilibration time of 3 hours if the weight criterion was not met. Data were not corrected for the initial moisture content of the samples. Sodium chloride and polyvinypyrrolidine were used as calibration standards.

CC(C)CC(NC(=O)C(N)Cc1ccccc1)C(=O)N1CCCC1C(=O)NC(CO)C(=O)O (centres unmarked) [SEQ ID NO: 1] (H-FLPS-OH; configuration not given here)
solubility ([1]; 1-Butanol): ≥ 43 mg/mL
solubility ([1]; 2-Butanone): ≥ 20 mg/mL
solubility ([1]; 2-Propanol): ≥ 20 mg/mL
solubility ([1]; Acetone): ≥ 40 mg/mL
solubility ([1]; Acetonitrile (ACN)): ≥ 19 mg/mL
solubility ([1]; Chloroform): ≤ 1.9 mg/mL
solubility ([1]; Dichloromethane (DCM)): ≥ 20 mg/mL
solubility ([1]; Ethanol (EtOH)): ≥ 52 mg/mL
solubility ([1]; Ethyl acetate (EtOAc)): ≥ 20 mg/mL
solubility ([1]; Heptane): ≤ 2 mg/mL
solubility ([1]; Isopropyl ether): ≤ 2.7 mg/mL
solubility ([1]; Methanol (MeOH)): ≥ 50 mg/mL
solubility ([1]; Pentane): ≤ 2 mg/mL
solubility ([1]; Tetrahydrofuran (THF)): ≥ 44 mg/mL
solubility ([1]; Toluene): ≤ 3.6 mg/mL
solubility ([1]; Water, visual inspection): ≥ 60 mg/mL
weight gain, adsorption [2]: 5%-95% RH; 25.0 w % (gain),
weight gain, adsorption ([2]; listed as SEQ ID NO:1): 25.0 w %
weight loss, desorption [2]: 95%-5% RH; 28.2 w % (loss)
weight loss, desorption ([2]; listed as SEQ ID NO:1): 28.2 w %
final weight loss after the desorption step ([2]; at ~5% RH, relative to original weight): 4.4%
initial weight loss ([2]; on equilibration at ~5% RH, as received material): 1.3%
weight gain on the sorption step ([2]; up to ~95% RH, relative to original weight): approximately 23.7%
